The assay addresses p97 ATPase WT (Homo sapiens (Human), UniProt P55072). The experiment in a line: p97 ADP-Glo assay. The format is biochemical. The conditions noted are these: Table 3. From the text: ADP-Glo™ (Promega Corp.) is a bioluminescent, homogeneous assay that measures ADP formed from a biochemical reactions. Because of its high sensitivity, the assay is suitable for monitoring enzyme activities at very early substrate conversions requiring very low amount of enzymes.
The ADP-Glo assay can be conducted as described in Chou, T.-F.; Bulfer, S. L.; Weihl, C.
On the technique in general: ADP-Glo turns the ADP formed in a reaction into a luminescent signal.

Chain of p97 ATPase WT (P55072 whole entry): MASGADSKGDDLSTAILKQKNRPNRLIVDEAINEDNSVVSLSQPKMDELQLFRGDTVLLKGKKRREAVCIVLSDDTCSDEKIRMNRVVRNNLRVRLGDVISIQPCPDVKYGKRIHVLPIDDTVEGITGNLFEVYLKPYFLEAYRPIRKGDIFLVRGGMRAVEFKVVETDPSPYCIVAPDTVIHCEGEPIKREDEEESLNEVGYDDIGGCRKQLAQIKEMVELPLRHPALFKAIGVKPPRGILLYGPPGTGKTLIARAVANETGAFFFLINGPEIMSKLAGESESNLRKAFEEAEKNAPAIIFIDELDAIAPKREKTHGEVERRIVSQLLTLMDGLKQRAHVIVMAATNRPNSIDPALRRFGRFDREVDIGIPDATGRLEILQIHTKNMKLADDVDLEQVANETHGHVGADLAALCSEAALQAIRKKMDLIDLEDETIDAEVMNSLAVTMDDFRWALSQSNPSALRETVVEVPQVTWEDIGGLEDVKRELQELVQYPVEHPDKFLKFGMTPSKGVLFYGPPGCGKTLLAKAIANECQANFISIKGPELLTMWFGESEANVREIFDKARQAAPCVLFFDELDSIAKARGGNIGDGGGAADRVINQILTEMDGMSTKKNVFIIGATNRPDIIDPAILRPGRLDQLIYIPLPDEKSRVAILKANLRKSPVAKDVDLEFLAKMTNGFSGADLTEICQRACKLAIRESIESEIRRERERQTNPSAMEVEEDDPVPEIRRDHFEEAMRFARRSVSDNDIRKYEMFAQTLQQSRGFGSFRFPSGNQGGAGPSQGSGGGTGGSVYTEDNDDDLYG

The compound `CC(C)N1CCC(NC2CCN(c3cccc(-c4cc5cc(C#N)ccc5[nH]4)c3)CC2)CC1` returned an IC50 of 6.2 µM.

The term IC50 denotes the concentration that inhibits the measured activity by half. Read a high IC50 as a need for much substance.
